Test: method code SF-AS, from PMID: 8047542
`CCCCCOC(=O)C(C)c1ccc(CC(C)C)cc1` (configuration not stated) gave a logP of 3.3.
In the case of `CC(C)Cc1ccc(C(C)C(=O)OC(C)C)cc1` (configuration not stated), the logP is reported as 2.3.
`CCCCCCCCCCCCCCCCOC(=O)C(C)c1ccc(CC(C)C)cc1` (configuration not stated) showed a logP of 3.71.
Work on `CCCCCCOC(=O)C(C)c1ccc(CC(C)C)cc1` (configuration not stated) yielded a logP of 3.55.
`CCCCOC(=O)C(C)c1ccc(CC(C)C)cc1` (configuration not stated) gave a logP of 3.13.
`CCCCCCCOC(=O)C(C)c1ccc(CC(C)C)cc1` (configuration not stated) gave a logP of 3.75.
In the case of `CC(C)COC(=O)C(C)c1ccc(CC(C)C)cc1` (configuration not stated), the logP is reported as 2.68.
In the case of `CCC(C)OC(=O)C(C)c1ccc(CC(C)C)cc1` (configuration not stated), the logP is reported as 3.06.
Compound `CCCOC(=O)C(C)c1ccc(CC(C)C)cc1` (configuration not stated) has a logP of 2.88.
Work on `CCOC(=O)C(C)c1ccc(CC(C)C)cc1` (configuration not stated) yielded a logP of 3.02.
Work on `CC(C)Cc1ccc(C(C)C(=O)OC(C)(C)C)cc1` (configuration not stated) yielded a logP of 2.37.
`COC(=O)C(C)c1ccc(CC(C)C)cc1` (configuration not stated) showed a logP of 2.97.
